Experimental data as given in the supplement of paper PMC12463676, “Small-molecule dissolution of stress granules by redox modulation benefits ALS models” (Nature Chemical Biology, 2025).

Legend:
[1] = compound: O=[As]([O-])(O)O.[K+] [potassium arsenate]; assay: thermal stability z-score vs DMSO; higher = more thermally stabilized by treatment; conditions: HeLa; arsenate concentration 1 mM
Protocol: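 Cellular thermal proteome profiling in HeLa cells treated with 1 mM arsenate for 1 h (DMSO pretreatment), heated to ten temperatures (37-66.3 °C). Soluble protein was quantified by TMT mass spectrometry relative to DMSO controls; the thermal stability score was transformed to a z-score; mean of n = 3 experiments.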

[2] = compound: NC(=O)CCCCC1CCSS1 [lipoamide]; assay: as above; conditions: HeLa, lipoamide concentration 100 µM
Protocol: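 Cellular thermal proteome profiling in HeLa cells. Cells were treated with 100 µM lipoamide for 1 h, with or without 1 mM arsenate for a further 1 h, then heated to ten temperatures (37-66.3 °C), and soluble protein was quantified by TMT mass spectrometry relative to 0.1% DMSO controls. The thermal stability score (sum of log2 fold changes minus the abundance score) was transformed to a z-score; mean of n = 3 experiments.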

[3] = arsenate co-treatment: 1 mM arsenate 1 h
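Also: each temperature applied for 3 min, abundance score taken as mean log2 fold change at the two lowest temperatures, z-score obtained by mean subtraction and division by SD.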

Chain of UniProt Q86XK3 (Q86XK3 whole entry): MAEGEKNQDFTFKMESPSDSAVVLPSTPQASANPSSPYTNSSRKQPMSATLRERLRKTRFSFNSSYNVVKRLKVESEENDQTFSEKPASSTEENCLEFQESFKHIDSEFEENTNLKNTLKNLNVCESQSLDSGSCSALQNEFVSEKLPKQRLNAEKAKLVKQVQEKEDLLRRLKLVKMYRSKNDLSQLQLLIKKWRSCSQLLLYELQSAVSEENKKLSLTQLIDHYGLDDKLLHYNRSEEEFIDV
Chain of UniProt P29353 (P29353 whole entry): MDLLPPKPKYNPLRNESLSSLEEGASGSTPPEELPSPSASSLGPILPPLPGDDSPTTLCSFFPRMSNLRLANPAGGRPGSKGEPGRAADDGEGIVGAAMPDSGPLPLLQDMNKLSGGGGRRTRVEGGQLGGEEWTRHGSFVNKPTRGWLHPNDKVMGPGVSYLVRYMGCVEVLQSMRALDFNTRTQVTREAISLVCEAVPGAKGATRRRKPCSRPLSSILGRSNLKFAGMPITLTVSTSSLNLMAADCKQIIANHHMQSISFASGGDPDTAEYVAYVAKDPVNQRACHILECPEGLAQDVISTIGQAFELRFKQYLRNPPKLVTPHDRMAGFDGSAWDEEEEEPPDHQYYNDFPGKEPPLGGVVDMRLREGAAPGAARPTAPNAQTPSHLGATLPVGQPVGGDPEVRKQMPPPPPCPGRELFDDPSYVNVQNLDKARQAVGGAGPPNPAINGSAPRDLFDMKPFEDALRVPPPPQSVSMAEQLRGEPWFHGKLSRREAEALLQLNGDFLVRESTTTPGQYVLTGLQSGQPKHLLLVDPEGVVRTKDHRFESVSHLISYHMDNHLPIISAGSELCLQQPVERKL
Chain of UniProt Q9NXA8 (Q9NXA8 whole entry, looked up): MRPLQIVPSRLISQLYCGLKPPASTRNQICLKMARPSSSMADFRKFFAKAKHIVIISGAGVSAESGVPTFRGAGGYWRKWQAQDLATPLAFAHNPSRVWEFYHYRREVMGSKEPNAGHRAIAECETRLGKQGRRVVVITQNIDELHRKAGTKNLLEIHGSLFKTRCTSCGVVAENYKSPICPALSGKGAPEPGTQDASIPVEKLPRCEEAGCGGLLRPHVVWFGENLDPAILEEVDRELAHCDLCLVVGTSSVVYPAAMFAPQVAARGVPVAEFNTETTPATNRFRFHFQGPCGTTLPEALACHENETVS
Chain of UniProt Q5TCZ1 (Q5TCZ1 whole entry): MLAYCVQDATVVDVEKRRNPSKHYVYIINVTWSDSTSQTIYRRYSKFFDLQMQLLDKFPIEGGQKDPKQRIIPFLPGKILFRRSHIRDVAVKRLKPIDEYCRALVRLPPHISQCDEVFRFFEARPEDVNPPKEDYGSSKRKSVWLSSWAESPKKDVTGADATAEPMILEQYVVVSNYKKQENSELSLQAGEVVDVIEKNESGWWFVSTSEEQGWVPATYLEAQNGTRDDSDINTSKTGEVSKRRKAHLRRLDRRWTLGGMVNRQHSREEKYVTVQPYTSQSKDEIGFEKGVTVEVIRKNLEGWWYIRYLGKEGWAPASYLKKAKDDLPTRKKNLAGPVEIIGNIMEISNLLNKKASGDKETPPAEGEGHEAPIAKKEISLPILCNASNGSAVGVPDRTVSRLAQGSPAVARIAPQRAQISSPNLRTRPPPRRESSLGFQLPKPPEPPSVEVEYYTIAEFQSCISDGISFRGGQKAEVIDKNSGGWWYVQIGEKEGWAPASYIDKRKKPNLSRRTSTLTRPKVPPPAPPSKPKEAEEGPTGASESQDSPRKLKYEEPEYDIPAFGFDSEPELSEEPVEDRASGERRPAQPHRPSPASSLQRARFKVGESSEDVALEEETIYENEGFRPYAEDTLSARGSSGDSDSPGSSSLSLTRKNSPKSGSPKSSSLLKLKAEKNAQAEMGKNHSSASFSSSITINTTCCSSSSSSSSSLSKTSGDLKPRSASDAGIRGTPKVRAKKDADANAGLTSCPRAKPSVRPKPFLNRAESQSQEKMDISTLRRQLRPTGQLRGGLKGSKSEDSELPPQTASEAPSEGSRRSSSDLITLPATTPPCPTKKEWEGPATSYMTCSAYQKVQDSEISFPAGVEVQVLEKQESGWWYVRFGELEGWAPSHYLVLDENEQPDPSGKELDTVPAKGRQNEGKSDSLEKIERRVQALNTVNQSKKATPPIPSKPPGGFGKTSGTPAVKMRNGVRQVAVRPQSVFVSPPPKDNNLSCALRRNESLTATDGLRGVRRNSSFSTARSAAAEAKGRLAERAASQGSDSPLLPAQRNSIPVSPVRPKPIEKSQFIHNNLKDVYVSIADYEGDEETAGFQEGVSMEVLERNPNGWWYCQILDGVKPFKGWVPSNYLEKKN
Chain of UniProt Q8IXJ6 (Q8IXJ6 whole entry): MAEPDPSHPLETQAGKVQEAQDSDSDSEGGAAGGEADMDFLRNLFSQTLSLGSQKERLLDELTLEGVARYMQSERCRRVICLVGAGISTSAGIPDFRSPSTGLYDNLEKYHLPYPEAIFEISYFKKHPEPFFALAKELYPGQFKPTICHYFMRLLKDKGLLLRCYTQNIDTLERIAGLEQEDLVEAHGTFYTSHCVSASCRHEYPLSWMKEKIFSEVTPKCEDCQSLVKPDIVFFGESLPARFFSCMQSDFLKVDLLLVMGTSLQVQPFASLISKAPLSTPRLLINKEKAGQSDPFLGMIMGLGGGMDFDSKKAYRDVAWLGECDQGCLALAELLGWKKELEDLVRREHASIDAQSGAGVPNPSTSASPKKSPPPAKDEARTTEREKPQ
Chain of UniProt Q9P0V3 (Q9P0V3 whole entry): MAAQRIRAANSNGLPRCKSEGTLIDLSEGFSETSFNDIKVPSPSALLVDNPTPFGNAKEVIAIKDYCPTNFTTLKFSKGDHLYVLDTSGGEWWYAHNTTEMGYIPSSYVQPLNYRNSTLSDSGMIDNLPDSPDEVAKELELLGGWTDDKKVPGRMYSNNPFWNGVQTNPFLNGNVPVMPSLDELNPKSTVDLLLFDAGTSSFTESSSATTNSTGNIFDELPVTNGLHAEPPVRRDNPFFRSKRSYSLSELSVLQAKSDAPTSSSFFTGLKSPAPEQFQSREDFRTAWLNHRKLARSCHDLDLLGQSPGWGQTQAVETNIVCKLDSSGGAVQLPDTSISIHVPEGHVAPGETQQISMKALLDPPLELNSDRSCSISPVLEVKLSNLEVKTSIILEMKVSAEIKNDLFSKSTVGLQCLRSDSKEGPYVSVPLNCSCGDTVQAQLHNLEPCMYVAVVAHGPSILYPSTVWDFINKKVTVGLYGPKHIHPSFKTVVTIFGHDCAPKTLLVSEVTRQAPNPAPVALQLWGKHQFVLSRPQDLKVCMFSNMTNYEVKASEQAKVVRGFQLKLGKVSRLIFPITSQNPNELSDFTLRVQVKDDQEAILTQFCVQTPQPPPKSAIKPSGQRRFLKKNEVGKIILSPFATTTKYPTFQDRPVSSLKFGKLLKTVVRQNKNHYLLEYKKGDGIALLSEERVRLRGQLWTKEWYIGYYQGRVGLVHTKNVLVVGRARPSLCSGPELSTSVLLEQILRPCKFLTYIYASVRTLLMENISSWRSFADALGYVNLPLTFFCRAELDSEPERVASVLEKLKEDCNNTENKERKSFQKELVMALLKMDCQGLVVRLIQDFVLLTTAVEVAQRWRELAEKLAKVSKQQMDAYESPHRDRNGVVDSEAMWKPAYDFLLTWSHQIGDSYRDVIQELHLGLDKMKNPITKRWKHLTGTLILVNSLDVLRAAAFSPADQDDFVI
Chain of UniProt Q8NBJ9 (Q8NBJ9 whole entry): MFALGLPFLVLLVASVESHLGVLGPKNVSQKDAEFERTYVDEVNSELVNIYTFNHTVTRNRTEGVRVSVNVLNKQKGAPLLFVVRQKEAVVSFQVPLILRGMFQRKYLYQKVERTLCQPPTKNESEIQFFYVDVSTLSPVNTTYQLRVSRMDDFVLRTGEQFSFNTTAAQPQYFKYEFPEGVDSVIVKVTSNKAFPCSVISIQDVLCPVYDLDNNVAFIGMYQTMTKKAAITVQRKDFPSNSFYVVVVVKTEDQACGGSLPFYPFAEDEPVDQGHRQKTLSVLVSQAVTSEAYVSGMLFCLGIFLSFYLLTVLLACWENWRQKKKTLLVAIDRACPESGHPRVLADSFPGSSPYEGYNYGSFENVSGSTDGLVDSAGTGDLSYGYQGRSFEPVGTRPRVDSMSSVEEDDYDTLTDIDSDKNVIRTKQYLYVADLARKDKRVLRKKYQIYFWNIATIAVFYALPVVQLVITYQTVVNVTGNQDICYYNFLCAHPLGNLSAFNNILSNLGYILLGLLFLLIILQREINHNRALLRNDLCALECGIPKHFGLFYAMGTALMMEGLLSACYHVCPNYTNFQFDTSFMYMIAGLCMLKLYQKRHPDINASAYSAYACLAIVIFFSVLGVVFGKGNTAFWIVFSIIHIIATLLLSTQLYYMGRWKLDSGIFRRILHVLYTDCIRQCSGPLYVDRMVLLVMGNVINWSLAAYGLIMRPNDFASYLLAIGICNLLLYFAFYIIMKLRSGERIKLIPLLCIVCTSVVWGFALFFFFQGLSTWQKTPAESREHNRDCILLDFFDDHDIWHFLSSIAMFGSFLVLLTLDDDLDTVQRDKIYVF
Chain of UniProt Q99961 (Q99961 whole entry): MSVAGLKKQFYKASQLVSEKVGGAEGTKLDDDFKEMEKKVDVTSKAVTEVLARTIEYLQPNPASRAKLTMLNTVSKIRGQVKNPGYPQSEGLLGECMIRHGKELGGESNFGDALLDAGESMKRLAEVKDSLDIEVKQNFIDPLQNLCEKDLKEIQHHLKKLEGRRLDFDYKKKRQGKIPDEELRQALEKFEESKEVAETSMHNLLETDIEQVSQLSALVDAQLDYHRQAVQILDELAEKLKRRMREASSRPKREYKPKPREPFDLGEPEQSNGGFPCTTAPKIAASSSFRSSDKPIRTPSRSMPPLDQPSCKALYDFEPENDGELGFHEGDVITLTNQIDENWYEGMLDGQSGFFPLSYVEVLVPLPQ
Chain of UniProt Q8WVK7 (Q8WVK7 whole entry): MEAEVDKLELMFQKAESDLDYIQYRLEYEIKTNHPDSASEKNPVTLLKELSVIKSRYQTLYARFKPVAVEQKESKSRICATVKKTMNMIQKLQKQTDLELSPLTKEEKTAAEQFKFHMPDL

Target SF3B6 (UniProt Q9Y3B4) has a thermal stability z-score [1] of -0.667, a thermal stability z-score [2, 3] of -0.787 and a thermal stability z-score ([2]; arsenate co-treatment: none) of -0.165.
SFN (UniProt P31947) was tested, and the thermal stability z-score [1] was -0.012, the thermal stability z-score [2, 3] was 0.524 and the thermal stability z-score ([2]; arsenate co-treatment: none) was 0.0759.
For SFPQ (UniProt P23246), the thermal stability z-score [1] was 1.15, the thermal stability z-score [2, 3] was 2.47 and the thermal stability z-score ([2]; arsenate co-treatment: none) was 2.22.
SFR1 (UniProt Q86XK3) gave a thermal stability z-score [1] of 0.036, a thermal stability z-score [2, 3] of -0.12 and a thermal stability z-score ([2]; arsenate co-treatment: none) of -0.359.
Target SFXN1 (UniProt Q9H9B4) has a thermal stability z-score [1] of 0.0559, a thermal stability z-score [2, 3] of 0.607 and a thermal stability z-score ([2]; arsenate co-treatment: none) of 0.214.
SFXN3 (UniProt Q9BWM7) showed a thermal stability z-score [1] of 0.16, a thermal stability z-score [2, 3] of 0.507 and a thermal stability z-score ([2]; arsenate co-treatment: none) of 0.279.
With SFXN4 (UniProt Q6P4A7) the thermal stability z-score [1] was 0.207, the thermal stability z-score [2, 3] was -1.11 and the thermal stability z-score ([2]; arsenate co-treatment: none) was -0.872.
SGF29 (UniProt Q96ES7) gave a thermal stability z-score [1] of -1.03, a thermal stability z-score [2, 3] of 0.571 and a thermal stability z-score ([2]; arsenate co-treatment: none) of 0.347.
In the case of SGK1 (UniProt O00141), the thermal stability z-score [1] is reported as 0.187, the thermal stability z-score [2, 3] is reported as 0.0815 and the thermal stability z-score ([2]; arsenate co-treatment: none) is reported as -0.0515.
In the case of SGMS2 (UniProt Q8NHU3), the thermal stability z-score [1] is reported as -1.22, the thermal stability z-score [2, 3] is reported as -1.39 and the thermal stability z-score ([2]; arsenate co-treatment: none) is reported as -0.337.
SGPL1 (UniProt O95470) was tested, and the thermal stability z-score [1] was -0.584, the thermal stability z-score [2, 3] was 0.442 and the thermal stability z-score ([2]; arsenate co-treatment: none) was 0.255.
SGPP1 (UniProt Q9BX95) showed a thermal stability z-score [1] of -0.0282, a thermal stability z-score [2, 3] of 0.332 and a thermal stability z-score ([2]; arsenate co-treatment: none) of -0.299.
For SGTA (UniProt O43765), the thermal stability z-score [1] was 0.149, the thermal stability z-score [2, 3] was 0.332 and the thermal stability z-score ([2]; arsenate co-treatment: none) was 0.487.
For SGTB (UniProt Q96EQ0), the thermal stability z-score [1] was -0.308, the thermal stability z-score [2, 3] was 0.0457 and the thermal stability z-score ([2]; arsenate co-treatment: none) was 0.112.
SH2D3A (UniProt Q9BRG2) was tested, and the thermal stability z-score [1] was 0.0147, the thermal stability z-score [2, 3] was 0.139 and the thermal stability z-score ([2]; arsenate co-treatment: none) was -0.263.
In the case of SH2D4A (UniProt Q9H788), the thermal stability z-score [1] is reported as 0.112, the thermal stability z-score [2, 3] is reported as 0.0871 and the thermal stability z-score ([2]; arsenate co-treatment: none) is reported as 0.021.
Work on SH3BGRL3 (UniProt Q9H299) yielded a thermal stability z-score [1] of 0.000903, a thermal stability z-score [2, 3] of -0.0209 and a thermal stability z-score ([2]; arsenate co-treatment: none) of -0.395.
Work on SH3BGRL (UniProt O75368) yielded a thermal stability z-score [1] of 0.235, a thermal stability z-score [2, 3] of 0.42 and a thermal stability z-score ([2]; arsenate co-treatment: none) of 0.213.
In the case of SH3BP4 (UniProt Q9P0V3), the thermal stability z-score [1] is reported as -0.0405, the thermal stability z-score [2, 3] is reported as 0.0947 and the thermal stability z-score ([2]; arsenate co-treatment: none) is reported as 0.0993.
SH3BP5 (UniProt O60239) showed a thermal stability z-score [1] of -0.00483, a thermal stability z-score [2, 3] of 0.466 and a thermal stability z-score ([2]; arsenate co-treatment: none) of -0.17.
For SH3BP5L (UniProt Q7L8J4), the thermal stability z-score [1] was 0.227, the thermal stability z-score [2, 3] was 0.286 and the thermal stability z-score ([2]; arsenate co-treatment: none) was 0.0604.
With SH3D19 (UniProt Q5HYK7) the thermal stability z-score [1] was 0.228, the thermal stability z-score [2, 3] was 0.277 and the thermal stability z-score ([2]; arsenate co-treatment: none) was 0.225.
SH3GL1 (UniProt Q99961) gave a thermal stability z-score [1] of 0.538, a thermal stability z-score [2, 3] of -0.0464 and a thermal stability z-score ([2]; arsenate co-treatment: none) of 0.144.
For SH3GL2 (UniProt Q99962), the thermal stability z-score [1] was 0.00309, the thermal stability z-score [2, 3] was 0.272 and the thermal stability z-score ([2]; arsenate co-treatment: none) was 0.622.
In the case of SH3GLB1 (UniProt Q9Y371), the thermal stability z-score [1] is reported as 0.658, the thermal stability z-score [2, 3] is reported as -0.179 and the thermal stability z-score ([2]; arsenate co-treatment: none) is reported as -0.0481.
SH3GLB2 (UniProt Q9NR46) showed a thermal stability z-score [1] of 0.364, a thermal stability z-score [2, 3] of -0.0875 and a thermal stability z-score ([2]; arsenate co-treatment: none) of 0.468.
Target SH3KBP1 (UniProt Q96B97) has a thermal stability z-score [1] of -0.523, a thermal stability z-score [2, 3] of 0.46 and a thermal stability z-score ([2]; arsenate co-treatment: none) of 0.0841.
With SH3PXD2A (UniProt Q5TCZ1) the thermal stability z-score [1] was 0.207, the thermal stability z-score [2, 3] was -0.325 and the thermal stability z-score ([2]; arsenate co-treatment: none) was -1.05.
With SH3PXD2B (UniProt A1X283) the thermal stability z-score [1] was -0.433, the thermal stability z-score [2, 3] was -0.428 and the thermal stability z-score ([2]; arsenate co-treatment: none) was -0.272.
SH3RF1 (UniProt Q7Z6J0) was tested, and the thermal stability z-score [1] was -0.327, the thermal stability z-score [2, 3] was -0.0346 and the thermal stability z-score ([2]; arsenate co-treatment: none) was 0.00665.
In the case of SHC1 (UniProt P29353), the thermal stability z-score [1] is reported as 0.126, the thermal stability z-score [2, 3] is reported as -0.383 and the thermal stability z-score ([2]; arsenate co-treatment: none) is reported as 0.739.
Work on SHCBP1 (UniProt Q8NEM2) yielded a thermal stability z-score [1] of -0.451, a thermal stability z-score [2, 3] of 0.0159 and a thermal stability z-score ([2]; arsenate co-treatment: none) of 0.0645.
SHKBP1 (UniProt Q8TBC3) was tested, and the thermal stability z-score [1] was -0.372, the thermal stability z-score [2, 3] was 0.0505 and the thermal stability z-score ([2]; arsenate co-treatment: none) was 0.242.
In the case of SHMT1 (UniProt P34896), the thermal stability z-score [1] is reported as 0.764, the thermal stability z-score [2, 3] is reported as 0.374 and the thermal stability z-score ([2]; arsenate co-treatment: none) is reported as -0.0345.
SHMT2 (UniProt P34897) was tested, and the thermal stability z-score [1] was 0.0996, the thermal stability z-score [2, 3] was -0.198 and the thermal stability z-score ([2]; arsenate co-treatment: none) was -0.436.
For SHOC2 (UniProt Q9UQ13), the thermal stability z-score [1] was -0.00952, the thermal stability z-score [2, 3] was 0.22 and the thermal stability z-score ([2]; arsenate co-treatment: none) was -0.229.
SHQ1 (UniProt Q6PI26) showed a thermal stability z-score [1] of 0.000909, a thermal stability z-score [2, 3] of -0.105 and a thermal stability z-score ([2]; arsenate co-treatment: none) of 0.0326.
With SHROOM1 (UniProt Q2M3G4) the thermal stability z-score [1] was 0.508, the thermal stability z-score [2, 3] was -0.159 and the thermal stability z-score ([2]; arsenate co-treatment: none) was -0.157.
SHTN1 (UniProt A0MZ66) was tested, and the thermal stability z-score [1] was 1.25, the thermal stability z-score [2, 3] was 1.1 and the thermal stability z-score ([2]; arsenate co-treatment: none) was 0.75.
Target SIAE (UniProt Q9HAT2) has a thermal stability z-score [1] of 0.741, a thermal stability z-score [2, 3] of 0.527 and a thermal stability z-score ([2]; arsenate co-treatment: none) of 0.537.
With SIDT2 (UniProt Q8NBJ9) the thermal stability z-score [1] was -1.91, the thermal stability z-score [2, 3] was -1.33 and the thermal stability z-score ([2]; arsenate co-treatment: none) was -1.46.
With SIGMAR1 (UniProt Q99720) the thermal stability z-score [1] was 0.687, the thermal stability z-score [2, 3] was 0.596 and the thermal stability z-score ([2]; arsenate co-treatment: none) was 0.0865.
SIL1 (UniProt Q9H173) showed a thermal stability z-score [1] of 1.44, a thermal stability z-score [2, 3] of -3.15 and a thermal stability z-score ([2]; arsenate co-treatment: none) of -2.4.
For SIN3A (UniProt Q96ST3), the thermal stability z-score [1] was -0.303, the thermal stability z-score [2, 3] was -0.000782 and the thermal stability z-score ([2]; arsenate co-treatment: none) was 0.0569.
In the case of SIN3B (UniProt O75182), the thermal stability z-score [1] is reported as -0.327, the thermal stability z-score [2, 3] is reported as 0.0836 and the thermal stability z-score ([2]; arsenate co-treatment: none) is reported as 0.279.
With SIPA1 (UniProt Q96FS4) the thermal stability z-score [1] was 0.319, the thermal stability z-score [2, 3] was -0.295 and the thermal stability z-score ([2]; arsenate co-treatment: none) was 0.0519.
Target SIPA1L2 (UniProt Q9P2F8) has a thermal stability z-score [1] of -0.149, a thermal stability z-score [2, 3] of 0.197 and a thermal stability z-score ([2]; arsenate co-treatment: none) of 0.0316.
With SIRT1 (UniProt Q96EB6) the thermal stability z-score [1] was -0.922, the thermal stability z-score [2, 3] was -0.368 and the thermal stability z-score ([2]; arsenate co-treatment: none) was -0.379.
Target SIRT2 (UniProt Q8IXJ6) has a thermal stability z-score [1] of -0.31, a thermal stability z-score [2, 3] of 0.594 and a thermal stability z-score ([2]; arsenate co-treatment: none) of 0.653.
SIRT5 (UniProt Q9NXA8) gave a thermal stability z-score [1] of -1.02, a thermal stability z-score [2, 3] of -0.814 and a thermal stability z-score ([2]; arsenate co-treatment: none) of -1.26.
For SIRT6 (UniProt Q8N6T7), the thermal stability z-score [1] was -0.21, the thermal stability z-score [2, 3] was -0.0481 and the thermal stability z-score ([2]; arsenate co-treatment: none) was -0.176.
SKA1 (UniProt Q96BD8) was tested, and the thermal stability z-score [1] was -0.0935, the thermal stability z-score [2, 3] was -0.047 and the thermal stability z-score ([2]; arsenate co-treatment: none) was 0.0119.
SKA2 (UniProt Q8WVK7) showed a thermal stability z-score [1] of -0.271, a thermal stability z-score [2, 3] of -0.397 and a thermal stability z-score ([2]; arsenate co-treatment: none) of -0.0647.
With SKA3 (UniProt Q8IX90) the thermal stability z-score [1] was -0.18, the thermal stability z-score [2, 3] was -0.0726 and the thermal stability z-score ([2]; arsenate co-treatment: none) was 0.132.
Target SKIV2L2 (UniProt P42285) has a thermal stability z-score [1] of 0.0276, a thermal stability z-score [2, 3] of 0.46 and a thermal stability z-score ([2]; arsenate co-treatment: none) of 0.334.
